Source: ChEMBL document CHEMBL4507272 (2021)

What was measured:
[1] = molecular target: Mitogen-activated protein kinase 10 (Homo sapiens) (UniProt P53779); settings: Compound concentration 1000.0 nM
[2] = molecular target: Mitogen-activated protein kinase kinase kinase 2 (Homo sapiens) (UniProt Q9Y2U5); settings: Compound concentration 1000.0 nM
[3] = molecular target: Serine/threonine-protein kinase tousled-like 2 (Homo sapiens) (UniProt Q86UE8); settings: Compound concentration 1000.0 nM
[4] = test system: Tyrosine-protein kinase ABL1 (Homo sapiens), P00519 [F317I]; settings: Compound concentration 1000.0 nM
[5] = test system: Mast/stem cell growth factor receptor Kit (Homo sapiens), P10721 [V559D]; settings: Compound concentration 1000.0 nM
[6] = molecular target: Alpha-2B adrenergic receptor (Homo sapiens) (UniProt P18089); settings: Compound concentration 10.0 uM
[7] = molecular target: Tyrosine-protein kinase JAK1 (Homo sapiens) (UniProt P23458); settings: Compound concentration 1000.0 nM
[8] = molecular target: Serine/threonine-protein kinase 24 (Homo sapiens) (UniProt Q9Y6E0); settings: Compound concentration 1000.0 nM
[9] = molecular target: Dual specificity mitogen-activated protein kinase kinase 4 (Homo sapiens) (UniProt P45985); settings: Compound concentration 1000.0 nM
[10] = molecular target: Ribosomal protein S6 kinase alpha-6 (Homo sapiens) (UniProt Q9UK32); settings: Compound concentration 1000.0 nM
[11] = test system: ALK tyrosine kinase receptor (Homo sapiens), Q9UM73 [L1196M]; settings: Compound concentration 1000.0 nM
[12] = molecular target: Serine/threonine-protein kinase PLK4 (Homo sapiens) (UniProt O00444); settings: Compound concentration 1000.0 nM
[13] = molecular target: 5-hydroxytryptamine receptor 3A (Homo sapiens) (UniProt P46098); settings: Compound concentration 10.0 uM
[14] = molecular target: Tyrosine-protein kinase receptor UFO (Homo sapiens) (UniProt P30530); settings: Compound concentration 1000.0 nM
[15] = molecular target: Rho-associated protein kinase 1 (Homo sapiens) (UniProt Q13464); settings: Compound concentration 1000.0 nM
[16] = molecular target: Ephrin type-A receptor 7 (Homo sapiens) (UniProt Q15375); settings: Compound concentration 1000.0 nM
[17] = molecular target: Citron Rho-interacting kinase (Homo sapiens) (UniProt O14578); settings: Compound concentration 1000.0 nM
[18] = molecular target: Ephrin type-A receptor 5 (Homo sapiens) (UniProt P54756); settings: Compound concentration 1000.0 nM
[19] = molecular target: Cyclin-dependent kinase 4 (Homo sapiens) (UniProt P11802); settings: Compound concentration 1000.0 nM
[20] = molecular target: Maternal embryonic leucine zipper kinase (Homo sapiens) (UniProt Q14680); settings: Compound concentration 1000.0 nM
[21] = test system: Phosphatidylinositol 4,5-bisphosphate 3-kinase catalytic subunit alpha isoform (Homo sapiens), P42336 [H1047Y]; settings: Compound concentration 1000.0 nM
[22] = molecular target: Phosphatidylinositol 4,5-bisphosphate 3-kinase catalytic subunit beta isoform (Homo sapiens) (UniProt P42338); settings: Compound concentration 1000.0 nM
[23] = molecular target: Peripheral plasma membrane protein CASK (Homo sapiens) (UniProt O14936); settings: Compound concentration 1000.0 nM
[24] = molecular target: Tyrosine-protein kinase ABL2 (Homo sapiens) (UniProt P42684); settings: Compound concentration 1000.0 nM
[25] = molecular target: Ribosomal protein S6 kinase alpha-2 (Homo sapiens) (UniProt Q15349); settings: Compound concentration 1000.0 nM
[26] = molecular target: Vascular endothelial growth factor receptor 1 (Homo sapiens) (UniProt P17948); settings: Compound concentration 1000.0 nM
[27] = molecular target: Phosphatidylinositol 4-kinase beta (Homo sapiens) (UniProt Q9UBF8); settings: Compound concentration 1000.0 nM
[28] = molecular target: Serine/threonine-protein kinase Nek6 (Homo sapiens) (UniProt Q9HC98); settings: Compound concentration 1000.0 nM
[29] = molecular target: Serine/threonine-protein kinase PAK 2 (Homo sapiens) (UniProt Q13177); settings: Compound concentration 1000.0 nM
[30] = molecular target: Mitogen-activated protein kinase 12 (Homo sapiens) (UniProt P53778); settings: Compound concentration 1000.0 nM
[31] = molecular target: Mitogen-activated protein kinase kinase kinase 14 (Homo sapiens) (UniProt Q99558); settings: Compound concentration 1000.0 nM
[32] = molecular target: MAP/microtubule affinity-regulating kinase 4 (Homo sapiens) (UniProt Q96L34); settings: Compound concentration 1000.0 nM
[33] = molecular target: Protein kinase C epsilon type (Homo sapiens) (UniProt Q02156); settings: Compound concentration 1000.0 nM
[34] = molecular target: Serine/threonine-protein kinase D1 (Homo sapiens) (UniProt Q15139); settings: Compound concentration 1000.0 nM
[35] = molecular target: Ribosomal protein S6 kinase alpha-5 (Homo sapiens) (UniProt O75582); settings: Compound concentration 1000.0 nM
[36] = molecular target: Cyclin-dependent kinase 4 (Homo sapiens) (UniProt P11802); settings: Compound concentration 1000.0 nM; remark: listed apart in the source
[37] = molecular target: Fibroblast growth factor receptor 3 (Homo sapiens) (UniProt P22607); settings: Compound concentration 1000.0 nM
[38] = molecular target: Cyclin-dependent kinase 17 (Homo sapiens) (UniProt Q00537); settings: Compound concentration 1000.0 nM
[39] = molecular target: Myosin light chain kinase 2, skeletal/cardiac muscle (Homo sapiens) (UniProt Q9H1R3); settings: Compound concentration 1000.0 nM
[40] = molecular target: Ephrin type-A receptor 4 (Homo sapiens) (UniProt P54764); settings: Compound concentration 1000.0 nM
[41] = molecular target: 5'-AMP-activated protein kinase catalytic subunit alpha-1 (Homo sapiens) (UniProt Q13131); settings: Compound concentration 1000.0 nM
[42] = molecular target: Serine/threonine-protein kinase WNK2 (Homo sapiens) (UniProt Q9Y3S1); settings: Compound concentration 1000.0 nM
[43] = molecular target: 5-hydroxytryptamine receptor 1D (Homo sapiens) (UniProt P28221); settings: Compound concentration 10.0 uM
[44] = molecular target: Macrophage-stimulating protein receptor (Homo sapiens) (UniProt Q04912); settings: Compound concentration 1000.0 nM
[45] = test system: Epidermal growth factor receptor (Homo sapiens), P00533 [UNDEFINED MUTATION]; settings: Compound concentration 1000.0 nM

Cyclin-dependent kinase 4 (Homo sapiens), sequence (P11802 whole entry): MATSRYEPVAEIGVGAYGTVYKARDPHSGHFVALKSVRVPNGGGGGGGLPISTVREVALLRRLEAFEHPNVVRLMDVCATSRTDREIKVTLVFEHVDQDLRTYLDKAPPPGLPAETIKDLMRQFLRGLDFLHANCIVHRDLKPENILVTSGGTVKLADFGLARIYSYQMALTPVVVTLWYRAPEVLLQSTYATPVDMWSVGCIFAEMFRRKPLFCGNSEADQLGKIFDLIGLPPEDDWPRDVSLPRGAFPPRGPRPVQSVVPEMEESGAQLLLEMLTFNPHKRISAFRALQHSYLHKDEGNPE
Serine/threonine-protein kinase PLK4 (Homo sapiens), sequence (O00444 whole entry): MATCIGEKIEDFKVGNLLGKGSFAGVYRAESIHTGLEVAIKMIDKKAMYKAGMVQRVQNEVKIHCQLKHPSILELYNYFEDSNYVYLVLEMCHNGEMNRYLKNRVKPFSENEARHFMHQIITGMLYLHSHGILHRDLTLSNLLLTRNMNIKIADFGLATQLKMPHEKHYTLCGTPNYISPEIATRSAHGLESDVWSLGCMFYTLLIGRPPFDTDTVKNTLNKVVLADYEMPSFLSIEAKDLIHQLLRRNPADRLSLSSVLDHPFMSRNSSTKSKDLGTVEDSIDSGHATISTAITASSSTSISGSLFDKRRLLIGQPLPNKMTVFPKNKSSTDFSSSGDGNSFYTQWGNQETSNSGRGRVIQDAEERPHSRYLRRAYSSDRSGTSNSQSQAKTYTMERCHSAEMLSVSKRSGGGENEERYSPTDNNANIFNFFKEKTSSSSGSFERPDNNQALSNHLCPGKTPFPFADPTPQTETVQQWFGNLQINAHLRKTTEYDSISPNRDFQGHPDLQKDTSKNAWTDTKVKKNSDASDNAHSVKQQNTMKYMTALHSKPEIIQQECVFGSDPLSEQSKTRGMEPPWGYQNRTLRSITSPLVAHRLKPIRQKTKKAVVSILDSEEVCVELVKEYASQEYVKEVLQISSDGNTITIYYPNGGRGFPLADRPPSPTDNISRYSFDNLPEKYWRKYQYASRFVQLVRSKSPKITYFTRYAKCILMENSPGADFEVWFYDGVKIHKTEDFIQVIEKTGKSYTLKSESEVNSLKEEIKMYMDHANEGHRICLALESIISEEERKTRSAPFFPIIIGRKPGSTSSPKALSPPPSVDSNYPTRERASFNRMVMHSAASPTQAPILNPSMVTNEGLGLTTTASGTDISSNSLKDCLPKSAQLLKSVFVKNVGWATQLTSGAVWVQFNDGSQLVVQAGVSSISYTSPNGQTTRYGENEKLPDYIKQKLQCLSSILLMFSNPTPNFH
Phosphatidylinositol 4,5-bisphosphate 3-kinase catalytic subunit beta isoform (Homo sapiens), sequence (P42338 whole entry, looked up, canonical isoform): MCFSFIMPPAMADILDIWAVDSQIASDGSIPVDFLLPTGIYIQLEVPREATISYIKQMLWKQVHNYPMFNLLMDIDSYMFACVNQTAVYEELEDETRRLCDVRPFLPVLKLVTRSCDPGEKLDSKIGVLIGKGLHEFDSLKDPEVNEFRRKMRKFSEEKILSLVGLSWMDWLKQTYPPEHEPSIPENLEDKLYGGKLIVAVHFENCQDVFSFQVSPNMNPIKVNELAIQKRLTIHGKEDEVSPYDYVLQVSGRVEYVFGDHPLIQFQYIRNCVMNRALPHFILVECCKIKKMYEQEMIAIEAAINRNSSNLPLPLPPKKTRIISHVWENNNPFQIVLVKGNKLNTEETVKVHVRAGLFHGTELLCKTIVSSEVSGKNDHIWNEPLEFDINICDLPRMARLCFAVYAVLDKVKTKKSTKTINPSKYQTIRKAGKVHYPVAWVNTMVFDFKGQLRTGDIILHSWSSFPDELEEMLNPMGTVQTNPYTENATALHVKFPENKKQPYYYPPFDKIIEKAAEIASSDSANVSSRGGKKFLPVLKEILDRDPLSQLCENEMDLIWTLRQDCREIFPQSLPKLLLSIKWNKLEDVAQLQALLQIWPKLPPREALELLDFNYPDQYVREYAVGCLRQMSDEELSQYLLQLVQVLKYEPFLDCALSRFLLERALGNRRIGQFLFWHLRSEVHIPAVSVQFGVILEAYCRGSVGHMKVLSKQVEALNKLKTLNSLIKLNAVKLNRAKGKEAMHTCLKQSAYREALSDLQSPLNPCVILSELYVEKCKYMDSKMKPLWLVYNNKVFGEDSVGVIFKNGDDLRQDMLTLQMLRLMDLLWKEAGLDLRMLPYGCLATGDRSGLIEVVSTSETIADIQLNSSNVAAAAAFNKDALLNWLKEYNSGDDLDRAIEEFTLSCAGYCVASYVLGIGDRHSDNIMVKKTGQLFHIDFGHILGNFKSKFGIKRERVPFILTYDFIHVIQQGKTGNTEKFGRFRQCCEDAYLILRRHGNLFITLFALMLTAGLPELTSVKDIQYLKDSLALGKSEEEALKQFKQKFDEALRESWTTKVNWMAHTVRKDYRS
Mitogen-activated protein kinase 12 (Homo sapiens), sequence (P53778 whole entry): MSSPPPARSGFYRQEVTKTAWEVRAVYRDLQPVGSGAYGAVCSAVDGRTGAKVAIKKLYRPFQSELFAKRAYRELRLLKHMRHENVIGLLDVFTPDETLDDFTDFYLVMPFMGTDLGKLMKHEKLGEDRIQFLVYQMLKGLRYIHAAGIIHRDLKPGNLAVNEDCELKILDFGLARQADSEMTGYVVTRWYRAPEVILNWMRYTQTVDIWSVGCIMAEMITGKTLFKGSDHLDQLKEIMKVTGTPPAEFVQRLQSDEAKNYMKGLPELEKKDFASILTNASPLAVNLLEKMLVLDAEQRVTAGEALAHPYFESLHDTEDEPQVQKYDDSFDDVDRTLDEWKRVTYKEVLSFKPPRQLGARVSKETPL
5'-AMP-activated protein kinase catalytic subunit alpha-1 (Homo sapiens), sequence (Q13131 whole entry, looked up): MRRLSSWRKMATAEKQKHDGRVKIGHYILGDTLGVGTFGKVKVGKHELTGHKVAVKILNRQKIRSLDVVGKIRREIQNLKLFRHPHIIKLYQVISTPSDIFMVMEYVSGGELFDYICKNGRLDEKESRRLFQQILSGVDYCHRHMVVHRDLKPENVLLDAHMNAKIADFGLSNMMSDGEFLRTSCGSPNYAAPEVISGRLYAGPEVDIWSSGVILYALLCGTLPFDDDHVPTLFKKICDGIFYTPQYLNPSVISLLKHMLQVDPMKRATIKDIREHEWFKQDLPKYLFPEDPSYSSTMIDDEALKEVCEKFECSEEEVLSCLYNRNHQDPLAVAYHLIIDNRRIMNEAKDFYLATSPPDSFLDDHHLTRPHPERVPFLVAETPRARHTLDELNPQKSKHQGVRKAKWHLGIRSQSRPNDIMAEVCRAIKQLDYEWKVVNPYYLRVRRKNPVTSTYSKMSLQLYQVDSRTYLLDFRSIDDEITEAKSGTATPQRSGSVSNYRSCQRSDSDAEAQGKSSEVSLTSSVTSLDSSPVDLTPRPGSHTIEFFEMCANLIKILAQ
Rho-associated protein kinase 1 (Homo sapiens), sequence (Q13464 2-1354 limits assumed): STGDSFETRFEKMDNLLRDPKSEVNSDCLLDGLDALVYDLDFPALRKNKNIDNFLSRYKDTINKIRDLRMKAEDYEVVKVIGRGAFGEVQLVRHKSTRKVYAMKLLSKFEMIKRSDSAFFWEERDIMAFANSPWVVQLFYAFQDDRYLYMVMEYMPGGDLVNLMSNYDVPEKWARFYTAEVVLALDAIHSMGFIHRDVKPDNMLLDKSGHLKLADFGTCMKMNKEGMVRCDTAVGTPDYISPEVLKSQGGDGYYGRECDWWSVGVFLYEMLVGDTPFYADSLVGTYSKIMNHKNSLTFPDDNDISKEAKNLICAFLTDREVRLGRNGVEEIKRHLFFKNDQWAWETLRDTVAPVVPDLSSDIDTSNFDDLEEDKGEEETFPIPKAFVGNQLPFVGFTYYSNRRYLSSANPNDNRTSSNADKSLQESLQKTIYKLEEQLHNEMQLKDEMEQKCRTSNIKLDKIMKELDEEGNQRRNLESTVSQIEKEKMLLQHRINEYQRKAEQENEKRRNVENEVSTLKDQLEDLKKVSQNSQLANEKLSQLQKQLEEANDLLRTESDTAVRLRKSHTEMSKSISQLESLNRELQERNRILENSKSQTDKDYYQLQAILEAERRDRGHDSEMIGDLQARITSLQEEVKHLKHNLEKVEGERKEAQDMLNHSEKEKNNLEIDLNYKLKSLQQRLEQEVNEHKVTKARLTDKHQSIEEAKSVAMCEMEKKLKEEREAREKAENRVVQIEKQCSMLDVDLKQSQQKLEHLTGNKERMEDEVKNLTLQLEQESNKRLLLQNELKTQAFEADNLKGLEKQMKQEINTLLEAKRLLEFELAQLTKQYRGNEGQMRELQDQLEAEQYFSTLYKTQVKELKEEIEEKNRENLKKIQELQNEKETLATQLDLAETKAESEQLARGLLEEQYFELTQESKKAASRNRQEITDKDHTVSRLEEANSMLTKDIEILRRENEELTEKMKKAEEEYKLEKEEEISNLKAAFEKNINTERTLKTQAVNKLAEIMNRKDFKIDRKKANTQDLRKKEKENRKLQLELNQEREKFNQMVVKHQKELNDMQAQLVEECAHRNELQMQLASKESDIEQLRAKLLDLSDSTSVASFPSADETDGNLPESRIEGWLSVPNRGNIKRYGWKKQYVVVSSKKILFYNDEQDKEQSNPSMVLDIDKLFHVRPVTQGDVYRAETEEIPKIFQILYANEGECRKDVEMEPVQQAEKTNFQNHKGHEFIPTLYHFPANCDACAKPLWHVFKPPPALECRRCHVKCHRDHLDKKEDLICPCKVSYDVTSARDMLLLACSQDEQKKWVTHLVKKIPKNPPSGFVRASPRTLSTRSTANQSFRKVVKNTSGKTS
Serine/threonine-protein kinase Nek6 (Homo sapiens), sequence (Q9HC98 whole entry): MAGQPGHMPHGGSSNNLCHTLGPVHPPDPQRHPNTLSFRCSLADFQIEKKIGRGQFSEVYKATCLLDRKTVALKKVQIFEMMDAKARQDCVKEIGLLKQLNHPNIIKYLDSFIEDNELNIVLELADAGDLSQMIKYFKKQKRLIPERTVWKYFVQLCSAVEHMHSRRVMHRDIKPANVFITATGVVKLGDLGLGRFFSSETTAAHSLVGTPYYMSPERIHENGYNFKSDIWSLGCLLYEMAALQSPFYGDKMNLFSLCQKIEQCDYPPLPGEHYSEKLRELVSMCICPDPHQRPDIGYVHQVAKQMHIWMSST

CC(=O)C1=C(C)N(c2cccc(C(F)(F)F)c2)C(=O)N[C@@H]1c1ccc(C#N)nc1 [BAY-678]
inactive: residual activity [1] 100% | residual activity [2] 100% | residual activity [3] 100% | residual activity [4] 100% | residual activity [5] 100% | inhibition [6] -1.73% | residual activity [7] 85.9% | residual activity [8] 95.4% | residual activity [9] 98.1% | residual activity [10] 100% | residual activity [11] 94.1% | residual activity [12] 82.7% | inhibition [13] -7.63% | residual activity [14] 100% | residual activity [15] 100% | residual activity [16] 100% | residual activity [17] 77.6% | residual activity [18] 98.2% | residual activity [19] 79.4% | residual activity [20] 88.2% | residual activity [21] 87.6% | residual activity [22] 100% | residual activity [23] 100% | residual activity [24] 100% | residual activity [25] 72.8% | residual activity [26] 62.4% | residual activity [27] 100% | residual activity [28] 100% | residual activity [29] 98.2% | residual activity [30] 77.4% | residual activity [31] 100% | residual activity [32] 100% | residual activity [33] 73.9% | residual activity [34] 95.7% | residual activity [35] 89.2% | residual activity [36] 100% | residual activity [37] 96.4% | residual activity [38] 100% | residual activity [39] 100% | residual activity [40] 100% | residual activity [41] 85.4% | residual activity [42] 94% | inhibition [43] 10.9% | residual activity [44] 81.1% | residual activity [45] 78.6%
